Reference: US20160303095A1, “METHODS OF TREATING HEPATITIS B VIRUS” (Gilead Sciences, Inc., priority 2015, published 2016)
Where two headings read alike, the source gives them in different places.

Columns and labels:
H3K4me3 mark = assay: Western blot detection of H3K4me3 in HBV-infected PHHs; assay type: cell-based, human; details: for IC50: Homo sapiens; for chromatin H3K4Me3 mark: PHH from three different donors
Experimental: One million primary human hepatocytes (PHH) cells from three different donors were plated in 6 well collagen coated tissue culture plates in 2.5 ml Plating Media containing William's Medium E supplemented with 1% Penicillin/Streptomycin, 4 μg/mL human recombinant insulin, 2 mM glutamax, 15 mM Hepes, 1 μM dexamethasone and 5% fetal bovine serum (Life Technologies, Cat#A12176-01 Life Technologies, Chicago, Ill.) and incubated for 4-hours at 37° C. Following this incubation the media was changed to Maintenance Media (Cat#CM4000-A15564 Life Technologies, Chicago, Ill.) containing William's Medium E supplemented with 0.5% Penicillin/Streptomycin, 6.25 μg/mL human recombinant insulin, 6.25 μg/mL human transferrin, 6.25 ng/mL selenous acid, 1.25 mg/mL bovine serum albumin, 5.35 μg/mL linoleic acid, 2 mM glutamax, 15 mM Hepes, 0.1 μM dexamethasone, 2% fetal bovine serum, and 2% DMSO (Cat#D2650 Sigma, St. Louis, Mo.). The next day, cells were infected with approximately 500 genome equivalents of HBV clinical isolates 21P (GTA) or AD38 (GTD) per cell in Maintenance Media supplemented with 4% PEG 8000. Small molecule inhibitors targeting KDMs were serially diluted in Maintenance Media and added to cells at 3 days post infection (p.i.). Media with compounds was replenished every 2-3 days. Cells were harvested on day 14 p.i. by scraping the monolayer into ice-cold PBS supplemented with 5 mM Sodium Butyrate and concentrated by centrifugation at 1000×g for 5 minutes at 4° C. The cell pellets were washed twice by re-suspension in PBS and concentrated by centrifugation. The cells were lysed by suspension in Triton Extraction Buffer (TEB: PBS containing 0.5% Triton X 100 (v/v), 2 mM phenylmethylsulfonyl fluoride (PMSF), 0.02% (w/v) NaN3) at a cell density of 10^7 cells per ml and incubated on ice for 10 minutes with gentle stirring. Following centrifugation at 500 g for 10 minutes at 4° C., the supernatants were removed and the pellets were washed in 5×10^7 cells per ml TEB buffer and centrifuged as before. The pellets were re-suspended in 0.2N HCl at a cell density of 4×10^7 cells per ml and the histones were acid extracted overnight at 4° C. Samples were centrifuged at 500 g for 10 minutes at 4° C., the supematants were removed and protein content was determined using the Bradford assay. Histones were separated on a 4-20% gradient SDS gel (Mini protean TGX precast gels from BioRad), and blotted to a Hybond C-extra nitrocellulose membrane (Amersham Biosciences, RPN303E). H3K4me3 and total H3 were detected with a mixture of 1° antibodies (Cat#05-745R Millipore and Cat#14269S Cell Signaling) diluted 1:1000 in 5% skimmed milk powder in PBS containing 0.1% Tween. The western blot was washed 3 times in PBS containing 0.1% tween and incubated with 2° antibodies (Donkey anti-Mouse IRDye at 680LT Cat#926-68022 Licor Odyssey; Donkey anti-Rabbit IRDye at 800CW Cat#96-32213; Licor Odyssey) diluted 1:10000 in 5% skimmed milk powder in PBS containing 0.1% tween 20 for 1 h. Detection of infrared fluorescence was performed on Infrared Fluorescence Imaging System LI-COR. Concentration dependence of H3K4me3/H3 signal was used to calculate IC50 value for induction of H3K4 trimethylation.

HBV = assay: Effect of the withdrawal of KDM inhibitors on HBV rebound (HBsAg, HBeAg) in PHH; assay type: cell-based, Hepatitis B Virus; details: for HBeAg / HBsAg: PHH donor 8181, virus P21, compound removed after two weeks; for suppression of viral transcription after withdrawal: up to another 14 days after withdrawal; for rebound of HBsAg or HBeAg secretion into media after compound withdrawal: PHH donor 8181, 21p virus, 14 days treatment, then 14 days without compound
Experimental: PHH from donor 8181 infected with 21p virus was treated with serially diluted Examples 8 or 7 for 14 days. Afterwards the compound was removed and cell cultures were replenished regularly with fresh medium but without compound for another 14 days. The levels of HBsAg and HBeAg secretion were measured during the course of the experiment to monitor the effects of compound on virus replication. No rebound of HBsAg or HBeAg secretion into media was observed after the compound withdrawal.
(§1) PHH from donor 8181 were infected with patient viruses P21 for three days before serially diluted Example 8 was added to the cells. After two weeks of the treatment the compound was removed and cells were followed for another 14 days. Activity of the compound was monitored during the course of the experiment using HBsAg and HBeAg readout. The medium with/without compound was replenished every 3-4 days. Day 0—compound was added to the infected cells.
as §1, with “PHH” for “PHH from”, “8181 was” for “8181 were”, “Example 7” for “Example 8”

[1] = read-out: IC50 (concentration causing a 50% increase in the H3K4me3 mark), Virus 21P (GTA), PHH 4239
[2] = read-out: IC50 (concentration causing a 50% increase in the H3K4me3 mark), Virus 21P (GTA), PHH 8130
[3] = read-out: IC50 (concentration causing a 50% increase in the H3K4me3 mark), Virus 21P (GTA), PHH 8181
[4] = read-out: IC50 (concentration causing a 50% increase in the H3K4me3 mark), Virus AD38 (GTD), PHH 4239
[5] = read-out: IC50 (concentration causing a 50% increase in the H3K4me3 mark), Virus AD38 (GTD), PHH 8130
[6] = read-out: IC50 (concentration causing a 50% increase in the H3K4me3 mark), Virus AD38 (GTD), PHH 8181

Q: Which IC50 (H3K4me3 mark; [1]) does the source give for `CCN(CCN(C)C)C(=O)CNCc1cc(C(=O)O)ccn1` [Example 9] here?
A: Its IC50 is 0.06 µM.

Q: What about the IC50 (H3K4me3 mark; [2]) of the same compound?
A: Its IC50 is 0.13 µM.

Q: And the IC50 (H3K4me3 mark; [3])?
A: The IC50 was 0.1 µM.

Q: What about the IC50 (H3K4me3 mark; [4]) of the same compound?
A: The IC50 was 0.01 µM.

Q: What about the IC50 (H3K4me3 mark; [5]) of the same compound?
A: Its IC50 is 0.13 µM.

Q: What about the IC50 (H3K4me3 mark; [6]) of the same compound?
A: Its IC50 is 0.13 µM.

Q: And the “chromatin H3K4Me3 mark” value (H3K4me3 mark)?
A: The value was “increase in the chromatin H3K4Me3 mark in a dose-dependent manner”.

Q: For `CCOC(=O)c1ccnc(CNCC(=O)N(CC)CCN(C)C)c1` [Example 8], which HBeAg (HBV; 20 nM, Day 0) is on record?
A: Its HBeAg is 0 ng/mL.

Q: What about the HBsAg (HBV; 20 nM, Day 0) of the same compound?
A: Its HBsAg is 0 ng/mL.

Q: What about the HBeAg (HBV; 20 nM, Day 5) of the same compound?
A: The HBeAg was 5.3 ng/mL.

Q: And the HBsAg (HBV; 20 nM, Day 5)?
A: Its HBsAg is 13.8 ng/mL.

Q: What about the HBeAg (HBV; 20 nM, Day 10) of the same compound?
A: Its HBeAg is 31 ng/mL.

Q: And the HBsAg (HBV; 20 nM, Day 10)?
A: The HBsAg was 147 ng/mL.

Q: And the HBeAg (HBV; 20 nM, Day 14)?
A: Its HBeAg is 13 ng/mL.

Q: What about the HBsAg (HBV; 20 nM, Day 14) of the same compound?
A: Its HBsAg is 30 ng/mL.

Q: What about the HBeAg (HBV; 20 nM, Day 19) of the same compound?
A: The HBeAg was 3 ng/mL.

Q: And the HBsAg (HBV; 20 nM, Day 19)?
A: Its HBsAg is 9 ng/mL.

Q: And the HBeAg (HBV; 20 nM, Day 24)?
A: The HBeAg was 2.3 ng/mL.

Q: And the HBsAg (HBV; 20 nM, Day 24)?
A: Its HBsAg is 4.4 ng/mL.

Q: And the HBeAg (HBV; 20 nM, Day 28)?
A: Its HBeAg is 1.9 ng/mL.

Q: What about the HBsAg (HBV; 20 nM, Day 28) of the same compound?
A: Its HBsAg is 5.26 ng/mL.

Q: What about the “suppression of viral transcription after withdrawal” value (HBV; 0.08 μM) of the same compound?
A: Its value is “prolonged suppression of viral transcription”.

Q: What about the “rebound of HBsAg or HBeAg secretion into media after compound withdrawal” value (HBV) of the same compound?
A: The value was “No rebound”.

Q: What about the IC50 (H3K4me3 mark; [1]) of the same compound?
A: Its IC50 is 0.03 µM.

Q: And the IC50 (H3K4me3 mark; [2])?
A: Its IC50 is 0.001 µM.

Q: And the IC50 (H3K4me3 mark; [3])?
A: Its IC50 is 0.07 µM.

Q: And the IC50 (H3K4me3 mark; [4])?
A: The IC50 was 0.03 µM.

Q: And the IC50 (H3K4me3 mark; [5])?
A: Its IC50 is 0.003 µM.

Q: And the IC50 (H3K4me3 mark; [6])?
A: The IC50 was 0.05 µM.

Q: And the “chromatin H3K4Me3 mark” value (H3K4me3 mark)?
A: The value was “increase in the chromatin H3K4Me3 mark in a dose-dependent manner”.

Q: Which results are given for `Nc1c(C(=O)O)ccnc1C(=O)O` [Example 7, reference compound]?
A: suppression of viral transcription after withdrawal (HBV; 2 μM): prolonged suppression of viral transcription; HBeAg (HBV; 2000 nM, Day 0): 0 ng/mL; HBsAg (HBV; 2000 nM, Day 0): 0 ng/mL; HBeAg (HBV; 2000 nM, Day 5): 9.2 ng/mL; HBsAg (HBV; 2000 nM, Day 5): 20.6 ng/mL; HBeAg (HBV; 2000 nM, Day 10): 25.1 ng/mL; HBsAg (HBV; 2000 nM, Day 10): 149.2 ng/mL; HBeAg (HBV; 2000 nM, Day 14): 13.7 ng/mL; HBsAg (HBV; 2000 nM, Day 14): 68.6 ng/mL; HBeAg (HBV; 2000 nM, Day 19): 7.0 ng/mL; HBsAg (HBV; 2000 nM, Day 19): 26.8 ng/mL; HBeAg (HBV; 2000 nM, Day 24): 5.3 ng/mL; HBsAg (HBV; 2000 nM, Day 24): 11.7 ng/mL; HBeAg (HBV; 2000 nM, Day 28): 5.4 ng/mL; HBsAg (HBV; 2000 nM, Day 28): 19.1 ng/mL; rebound of HBsAg or HBeAg secretion into media after compound withdrawal (HBV): No rebound
